Test results: US10670605B2, “Cysteine reactive probes and uses thereof” (The Scripps Research Institute, priority 2015, dated 2020)

Assays:
[1] = target: T1, cysteines in MDA-MB-231 and Ramos cells (Homo sapiens, UniProt Q01433); assay: Competitive isoTOP-ABPP in situ (fragment-treated cells); format: cell-based
T1 sequence (Q01433 1-825): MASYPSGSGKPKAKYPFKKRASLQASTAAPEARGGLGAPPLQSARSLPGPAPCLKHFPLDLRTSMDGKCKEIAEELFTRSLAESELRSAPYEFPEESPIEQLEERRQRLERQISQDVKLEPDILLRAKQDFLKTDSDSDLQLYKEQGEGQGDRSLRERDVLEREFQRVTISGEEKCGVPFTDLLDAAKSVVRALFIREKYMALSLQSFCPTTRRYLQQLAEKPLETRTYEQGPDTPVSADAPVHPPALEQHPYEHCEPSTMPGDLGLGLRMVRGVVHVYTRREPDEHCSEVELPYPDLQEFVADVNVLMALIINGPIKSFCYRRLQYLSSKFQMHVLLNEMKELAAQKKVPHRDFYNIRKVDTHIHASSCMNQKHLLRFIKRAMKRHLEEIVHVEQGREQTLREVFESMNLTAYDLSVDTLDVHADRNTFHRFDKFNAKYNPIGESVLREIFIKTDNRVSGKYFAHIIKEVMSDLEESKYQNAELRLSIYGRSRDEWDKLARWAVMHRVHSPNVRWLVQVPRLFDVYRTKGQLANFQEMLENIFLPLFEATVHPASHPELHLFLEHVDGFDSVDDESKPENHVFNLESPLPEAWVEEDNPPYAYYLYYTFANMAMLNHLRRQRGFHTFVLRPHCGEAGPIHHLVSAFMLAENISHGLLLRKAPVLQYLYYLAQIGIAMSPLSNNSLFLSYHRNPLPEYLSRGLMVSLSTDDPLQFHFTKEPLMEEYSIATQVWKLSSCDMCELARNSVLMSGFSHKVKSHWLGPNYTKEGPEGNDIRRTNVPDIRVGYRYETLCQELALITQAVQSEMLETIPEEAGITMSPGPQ

[2] = target: cysteines in MDA-MB-231 and Ramos cells (Homo sapiens, UniProt P51610); assay: as above; format: cell-based
[3] = target: LRBA C1704 (P50851) (Homo sapiens, UniProt P50851); assay: Competitive isoTOP-ABPP, cell lysates; format: binding; conditions: for isoTOP-ABPP reactivity ratio, P50851_C1704: 500 μm, in-vitro_ramos
[4] = target: RRAGC C377 (Q9HB90) (Homo sapiens, UniProt Q9HB90); assay: Competitive isoTOP-ABPP, cell lysates; format: binding; conditions: for R value (DMSO/fragment): in vitro, MDA-MB-231; for isoTOP-ABPP ratio, Q9HB90_C377: invitro; for isoTOP-ABPP reactivity ratio, Q9HB90_C377: 500 μm, in-vitro_ramos_231
[5] = target: cysteines in MDA-MB-231 and Ramos cells (Homo sapiens, UniProt Q9BRF8); assay: Competitive isoTOP-ABPP in situ (fragment-treated cells); format: cell-based
[6] = target: T2, cysteines in MDA-MB-231 and Ramos cells (Homo sapiens, UniProt P09110); assay: as above; format: cell-based
T2 sequence (P09110 27-424): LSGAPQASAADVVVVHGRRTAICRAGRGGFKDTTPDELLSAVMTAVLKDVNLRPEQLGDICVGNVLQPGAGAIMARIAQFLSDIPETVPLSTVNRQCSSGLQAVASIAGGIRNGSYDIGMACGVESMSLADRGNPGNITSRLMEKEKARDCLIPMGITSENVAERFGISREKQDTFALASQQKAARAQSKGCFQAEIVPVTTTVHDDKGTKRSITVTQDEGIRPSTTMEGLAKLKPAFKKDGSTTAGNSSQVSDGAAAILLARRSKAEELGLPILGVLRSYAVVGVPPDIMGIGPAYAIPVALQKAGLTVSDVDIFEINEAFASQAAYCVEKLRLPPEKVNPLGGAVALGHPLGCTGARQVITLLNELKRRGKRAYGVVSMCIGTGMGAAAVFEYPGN

[7] = target: cysteines in MDA-MB-231 and Ramos cells (Homo sapiens, UniProt P49189); assay: as above; format: cell-based; conditions: 200 μM, insitu
[8] = target: O00541_C272 (Homo sapiens, UniProt O00541); assay: Competitive isoTOP-ABPP, cell lysates; format: binding
[9] = target: O114933_C98 (Homo sapiens, UniProt O14933); assay: Competitive isoTOP-ABPP, cell lysates; format: binding; conditions: 500 μm
Chain of O114933_C98 (O14933 whole entry): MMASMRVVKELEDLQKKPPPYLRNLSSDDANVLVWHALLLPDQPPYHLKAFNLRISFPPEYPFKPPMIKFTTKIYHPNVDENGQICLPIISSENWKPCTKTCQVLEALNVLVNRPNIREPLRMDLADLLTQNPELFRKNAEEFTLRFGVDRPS

Chain of O00541_C272 (O00541 whole entry, looked up): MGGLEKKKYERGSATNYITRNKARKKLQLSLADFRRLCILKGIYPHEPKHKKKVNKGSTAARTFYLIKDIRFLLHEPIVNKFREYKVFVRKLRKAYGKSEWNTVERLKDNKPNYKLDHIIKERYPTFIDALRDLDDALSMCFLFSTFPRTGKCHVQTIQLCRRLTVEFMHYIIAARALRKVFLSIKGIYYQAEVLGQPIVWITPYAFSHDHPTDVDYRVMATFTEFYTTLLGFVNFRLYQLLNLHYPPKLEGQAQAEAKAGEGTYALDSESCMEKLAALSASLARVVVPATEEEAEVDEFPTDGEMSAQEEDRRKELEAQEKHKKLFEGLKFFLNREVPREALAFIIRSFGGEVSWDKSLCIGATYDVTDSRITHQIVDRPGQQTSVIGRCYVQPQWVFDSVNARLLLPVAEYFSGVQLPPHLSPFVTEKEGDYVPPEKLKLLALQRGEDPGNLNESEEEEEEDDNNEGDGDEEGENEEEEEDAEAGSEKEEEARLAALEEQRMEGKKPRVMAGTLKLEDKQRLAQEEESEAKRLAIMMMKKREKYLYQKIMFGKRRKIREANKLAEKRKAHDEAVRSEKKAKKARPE
Chain of RRAGC C377 (Q9HB90) (Q9HB90 2-399 limits assumed): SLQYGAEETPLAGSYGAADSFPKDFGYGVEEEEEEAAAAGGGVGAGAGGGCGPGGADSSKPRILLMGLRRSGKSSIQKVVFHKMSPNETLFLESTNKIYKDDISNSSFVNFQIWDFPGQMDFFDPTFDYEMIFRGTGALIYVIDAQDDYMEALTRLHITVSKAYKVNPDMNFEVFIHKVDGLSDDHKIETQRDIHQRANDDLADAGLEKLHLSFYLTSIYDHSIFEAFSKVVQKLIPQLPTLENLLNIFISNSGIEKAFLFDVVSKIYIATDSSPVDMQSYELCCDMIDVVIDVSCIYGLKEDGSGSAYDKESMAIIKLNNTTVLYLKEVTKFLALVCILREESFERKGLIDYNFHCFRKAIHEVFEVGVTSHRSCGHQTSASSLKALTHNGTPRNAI
Chain of RRAGC C377 (Q9HB90) (Q7L523 whole entry partner, the tested form may be a part): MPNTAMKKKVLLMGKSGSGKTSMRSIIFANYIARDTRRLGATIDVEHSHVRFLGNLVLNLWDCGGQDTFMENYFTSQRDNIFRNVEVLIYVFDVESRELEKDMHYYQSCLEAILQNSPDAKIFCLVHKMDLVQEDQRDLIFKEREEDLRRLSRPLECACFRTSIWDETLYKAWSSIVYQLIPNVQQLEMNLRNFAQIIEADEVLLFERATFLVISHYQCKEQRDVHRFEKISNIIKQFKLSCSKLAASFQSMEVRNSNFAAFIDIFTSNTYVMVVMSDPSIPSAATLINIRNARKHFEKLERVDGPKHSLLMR
Chain of LRBA C1704 (P50851) (P50851 whole entry, the tested form may be a part): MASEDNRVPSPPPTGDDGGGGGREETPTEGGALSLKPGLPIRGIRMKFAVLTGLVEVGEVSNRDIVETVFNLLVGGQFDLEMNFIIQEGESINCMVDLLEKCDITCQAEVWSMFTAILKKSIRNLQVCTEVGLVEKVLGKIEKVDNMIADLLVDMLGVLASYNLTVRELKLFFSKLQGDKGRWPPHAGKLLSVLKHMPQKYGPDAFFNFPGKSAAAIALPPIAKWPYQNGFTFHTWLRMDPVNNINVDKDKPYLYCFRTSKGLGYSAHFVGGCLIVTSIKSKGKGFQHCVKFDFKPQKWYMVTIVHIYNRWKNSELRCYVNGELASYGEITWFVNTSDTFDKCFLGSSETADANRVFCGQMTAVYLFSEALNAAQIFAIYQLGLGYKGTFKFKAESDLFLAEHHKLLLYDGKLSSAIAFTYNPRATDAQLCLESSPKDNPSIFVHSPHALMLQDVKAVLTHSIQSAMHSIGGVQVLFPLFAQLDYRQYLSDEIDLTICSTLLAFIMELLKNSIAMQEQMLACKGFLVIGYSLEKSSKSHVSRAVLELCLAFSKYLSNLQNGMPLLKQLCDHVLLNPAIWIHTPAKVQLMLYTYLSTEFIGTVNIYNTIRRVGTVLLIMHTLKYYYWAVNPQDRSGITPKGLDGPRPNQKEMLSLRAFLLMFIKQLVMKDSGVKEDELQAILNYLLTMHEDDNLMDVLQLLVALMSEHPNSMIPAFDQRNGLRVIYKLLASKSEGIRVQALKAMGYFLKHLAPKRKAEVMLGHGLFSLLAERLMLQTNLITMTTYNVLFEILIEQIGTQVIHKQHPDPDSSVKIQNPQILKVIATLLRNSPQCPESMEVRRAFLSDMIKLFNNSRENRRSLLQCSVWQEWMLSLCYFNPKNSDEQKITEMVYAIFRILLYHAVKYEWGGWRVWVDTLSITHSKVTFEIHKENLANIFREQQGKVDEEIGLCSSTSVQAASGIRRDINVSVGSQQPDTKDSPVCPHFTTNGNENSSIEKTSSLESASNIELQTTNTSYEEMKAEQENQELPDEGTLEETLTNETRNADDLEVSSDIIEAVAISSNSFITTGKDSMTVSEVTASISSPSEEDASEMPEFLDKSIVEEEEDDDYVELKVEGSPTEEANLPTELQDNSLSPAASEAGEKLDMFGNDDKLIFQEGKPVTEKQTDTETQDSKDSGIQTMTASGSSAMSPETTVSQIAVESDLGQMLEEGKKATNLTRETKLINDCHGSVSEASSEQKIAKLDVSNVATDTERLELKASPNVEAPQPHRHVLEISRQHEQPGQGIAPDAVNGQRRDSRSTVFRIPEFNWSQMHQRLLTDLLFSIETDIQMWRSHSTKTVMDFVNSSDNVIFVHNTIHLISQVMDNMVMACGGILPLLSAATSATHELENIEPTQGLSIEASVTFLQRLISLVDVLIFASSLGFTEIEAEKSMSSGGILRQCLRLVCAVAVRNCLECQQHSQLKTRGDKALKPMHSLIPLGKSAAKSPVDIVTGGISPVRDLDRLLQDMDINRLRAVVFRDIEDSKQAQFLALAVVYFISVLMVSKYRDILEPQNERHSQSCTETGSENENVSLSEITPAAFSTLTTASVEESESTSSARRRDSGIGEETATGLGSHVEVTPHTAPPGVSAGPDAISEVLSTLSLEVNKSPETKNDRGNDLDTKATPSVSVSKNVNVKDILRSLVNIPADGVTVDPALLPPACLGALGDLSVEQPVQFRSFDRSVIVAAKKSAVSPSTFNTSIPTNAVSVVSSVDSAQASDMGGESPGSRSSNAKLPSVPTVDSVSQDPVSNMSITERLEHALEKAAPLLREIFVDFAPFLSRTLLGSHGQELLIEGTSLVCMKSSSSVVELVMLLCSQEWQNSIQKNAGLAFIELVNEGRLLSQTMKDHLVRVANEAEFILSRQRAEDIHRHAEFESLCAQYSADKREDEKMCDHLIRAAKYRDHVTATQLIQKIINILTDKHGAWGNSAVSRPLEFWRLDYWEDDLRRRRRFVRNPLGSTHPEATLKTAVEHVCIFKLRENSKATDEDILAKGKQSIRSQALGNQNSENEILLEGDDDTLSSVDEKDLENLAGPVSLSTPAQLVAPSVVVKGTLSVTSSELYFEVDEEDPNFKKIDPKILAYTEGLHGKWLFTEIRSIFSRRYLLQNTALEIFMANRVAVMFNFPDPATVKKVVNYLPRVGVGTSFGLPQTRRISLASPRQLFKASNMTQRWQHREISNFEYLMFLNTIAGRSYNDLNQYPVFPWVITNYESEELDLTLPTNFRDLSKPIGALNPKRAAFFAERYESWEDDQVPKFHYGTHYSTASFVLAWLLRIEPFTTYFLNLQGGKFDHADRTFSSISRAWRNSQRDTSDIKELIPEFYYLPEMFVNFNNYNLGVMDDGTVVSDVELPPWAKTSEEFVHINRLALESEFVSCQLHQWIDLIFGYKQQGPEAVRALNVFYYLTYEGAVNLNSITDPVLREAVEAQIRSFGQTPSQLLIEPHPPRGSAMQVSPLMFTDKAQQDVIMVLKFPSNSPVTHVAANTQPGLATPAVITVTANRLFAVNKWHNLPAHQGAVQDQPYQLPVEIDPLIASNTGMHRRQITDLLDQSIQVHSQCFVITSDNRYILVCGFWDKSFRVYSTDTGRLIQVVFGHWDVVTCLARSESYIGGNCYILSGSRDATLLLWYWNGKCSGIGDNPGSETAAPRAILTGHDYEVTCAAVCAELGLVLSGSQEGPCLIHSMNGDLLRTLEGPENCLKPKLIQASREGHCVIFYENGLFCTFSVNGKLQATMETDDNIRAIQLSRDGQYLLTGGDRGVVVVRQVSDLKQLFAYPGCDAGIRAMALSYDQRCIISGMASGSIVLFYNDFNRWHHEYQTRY
Chain of cysteines in MDA-MB-231 and Ramos cells (Homo sapiens, UniProt P49189) (P49189 whole entry): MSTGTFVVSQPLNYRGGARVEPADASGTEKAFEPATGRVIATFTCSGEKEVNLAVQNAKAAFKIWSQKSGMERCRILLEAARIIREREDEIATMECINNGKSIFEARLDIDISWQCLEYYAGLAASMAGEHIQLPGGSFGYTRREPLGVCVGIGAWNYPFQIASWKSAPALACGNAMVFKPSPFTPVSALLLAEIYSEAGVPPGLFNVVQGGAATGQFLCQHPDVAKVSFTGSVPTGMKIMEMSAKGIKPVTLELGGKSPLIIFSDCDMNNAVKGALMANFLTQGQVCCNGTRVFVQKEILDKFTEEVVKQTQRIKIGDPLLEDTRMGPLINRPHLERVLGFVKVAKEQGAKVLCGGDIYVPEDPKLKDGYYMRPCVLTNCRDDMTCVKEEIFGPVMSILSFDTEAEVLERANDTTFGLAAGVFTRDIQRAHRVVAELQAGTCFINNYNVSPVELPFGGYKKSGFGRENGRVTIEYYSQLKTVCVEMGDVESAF

COc1ccc2c(c1)CCCN2C(=O)CCl [compound 2]
isoTOP-ABPP reactivity Q01433_C107 AMPD2 ([1]; 200 μM, insitu, 231): 4.4
isoTOP-ABPP reactivity P51610_C1872 HCFC1 ([2]; 200 μM, insitu, 231): 4.1
R value (DMSO/fragment) ([3]; 500 μM, invitro, ramos): 3.4
R value (DMSO/fragment) ([4]; 500 μM): 20.0

COc1ccc(C2CC(c3cccs3)=NN2C(=O)CCl)cc1 (centres unmarked) [compound 4]
isoTOP-ABPP reactivity Q9BRF8_C54 CPPED1 ([5]; 100 μM in situ 231): 20.0
isoTOP-ABPP reactivity Q01433_C107 AMPD2 ([1]; 100 μM in situ 231): 2.3
R value (DMSO/fragment) ([3]; 250 μM, in vitro, Ramos): 1.5
R value (DMSO/fragment) ([4]; 250 μM): 3.5

COc1cc2c(cc1OC)CN(C(=O)CCl)CC2 [compound 8]
isoTOP-ABPP reactivity P09110_C381 ACAA1 ([6]; 200 μM, insitu, 231): 0.8
isoTOP-ABPP reactivity Q01433_C107 AMPD2 ([1]; 200 μM, insitu, 231): 6.2

O=C(CCl)N1CCC(Cc2ccccc2)CC1 [compound 9]
isoTOP-ABPP reactivity P49189_C288 ALDH9A1 [7]; 231: 20.0
isoTOP-ABPP reactivity Q9BRF8_C54 CPPED1 ([5]; 200 μM, insitu, 231): 2.4
isoTOP-ABPP reactivity Q01433_C107 AMPD2 ([1]; 200 μM, insitu, 231): 3.1

O=C(CCl)N1CCN(S(=O)(=O)c2ccccc2F)CC1 [compound 10]
isoTOP-ABPP ratio P49189_C288 [7]; 231: 20.0
isoTOP-ABPP ratio Q9BRF8_C54 ([5]; 200 μM, insitu, 231): 3.8
isoTOP-ABPP ratio, cysteine P51610_C1872 ([2]; 200 μM, insitu, 231): 1.5
isoTOP-ABPP ratio, P50851_C1704 ([3]; 500 μM, invitro, ramos): 0.8

Cn1cc(S(=O)(=O)N2CCOCC2)cc1C(=O)NC(=O)CCl [compound 11]
isoTOP-ABPP ratio Q9BRF8_C54 ([5]; 100 μM in situ 231): 1.0
isoTOP-ABPP ratio, cysteine P09110_C381 ([6]; 100 μM in situ 231): 0.8
isoTOP-ABPP ratio, cysteine Q01433_C107 ([1]; 100 μM in situ 231): 0.6
isoTOP-ABPP ratio, cysteine P51610_C1872 ([2]; 100 μM in situ 231): 0.5
isoTOP-ABPP ratio, P50851_C1704 ([3]; 500 μM, invitro, ramos): 1.4
isoTOP-ABPP ratio, Q9HB90_C377 ([4]; 500 μM, ramos): 1.6

O=C(CCl)NCCc1c[nH]c2ccccc12 [compound 13]
isoTOP-ABPP ratio P49189_C288 ([7]; ramos): 12.0
isoTOP-ABPP ratio Q9BRF8_C54 ([5]; 200 μM, insitu, 231): 1.4
isoTOP-ABPP ratio, cysteine P51610_C1872 ([2]; 200 μM, insitu, 231): 1.0
isoTOP-ABPP ratio, P50851_C1704 ([3]; 500 μM, invitro, 231): 0.7
isoTOP-ABPP ratio, P50851_C1704 ([3]; 500 μM, invitro, ramos): 0.8
isoTOP-ABPP ratio, Q9HB90_C377 ([4]; 500 μM, 231): 2.1

O=C(CCl)NC12CC3CC(CC(C3)C1)C2 [compound 21]
isoTOP-ABPP ratio (reactivity profile), O00541_C272 ([8]; 500 μm in-vitro ramos): 5.5
isoTOP-ABPP ratio P49189_C288 [7]; 231: 1.0
isoTOP-ABPP ratio (reactivity profile), P50851_C1704 ([3]; 500 μm in-vitro ramos): 1.6
isoTOP-ABPP ratio (reactivity profile), Q9HB90_C377 ([4]; 500 μm in-vitro ramos_231): 1.4

O=C(CCl)N1CCOCC1 [compound 22]
isoTOP-ABPP ratio (reactivity profile), O00541_C272 ([8]; 500 μm in-vitro ramos_231): 1.6
isoTOP-ABPP ratio (reactivity profile), Q9HB90_C377 ([4]; 500 μm in-vitro ramos): 0.9
isoTOP-ABPP ratio (reactivity profile), Q9HB90_C377 ([4]; 500 μm in-vitro ramos_231): 1.7

N#C/C(=C\c1cc(C(F)(F)F)cc(C(F)(F)F)c1)C(N)=O [compound 23]
isoTOP-ABPP ratio (reactivity profile), O00541_C272 ([8]; 500 μm in-vitro ramos): 2.0
isoTOP-ABPP ratio (reactivity profile), P50851_C1704 ([3]; 500 μm in-vitro ramos): 3.4
isoTOP-ABPP ratio (reactivity profile), Q9HB90_C377 ([4]; 500 μm in-vitro ramos_231): 1.5

CC(Br)C(=O)Nc1cc(C(F)(F)F)cc(C(F)(F)F)c1 (centres unmarked) [compound 24]
isoTOP-ABPP ratio (reactivity profile), O00541_C272 ([8]; 500 μm in-vitro ramos): 2.6
isoTOP-ABPP ratio (reactivity profile), P50851_C1704 ([3]; 500 μm in-vitro ramos): 1.3
isoTOP-ABPP ratio (reactivity profile), Q9HB90_C377 ([4]; 500 μm in-vitro ramos): 1.5

CC(C)CCOCCNC(=O)CCl [compound 27]
isoTOP-ABPP ratio (reactivity profile), O00541_C272 ([8]; 500 μm in-vitro ramos_231): 1.1
isoTOP-ABPP ratio Q01433_C107 ([1]; 200 μM, insitu, 231): 0.4
isoTOP-ABPP ratio (reactivity profile), P50851_C1704 ([3]; 500 μm in-vitro ramos_231): 1.1
isoTOP-ABPP ratio (reactivity profile), Q9HB90_C377 ([4]; 500 μm in-vitro ramos_231): 1.0

O=C(CCl)N1CCN(CC(=O)N2CCOCC2)CC1 [compound 29]
isoTOP-ABPP ratio (reactivity profile), O00541_C272 ([8]; 500 μm in-vitro ramos_231): 0.9
isoTOP-ABPP ratio Q9BRF8_C54 ([5]; 200 μM, insitu, ramos): 1.5
isoTOP-ABPP ratio (reactivity profile), Q9HB90_C377 ([4]; 500 μm in-vitro ramos_231): 1.3

C=CC(=O)N(Cc1cccnc1)c1cc(C(F)(F)F)cc(C(F)(F)F)c1 [compound 31]
isoTOP-ABPP ratio P09110_C381 ([6]; 200 μM, insitu, 231): 0.7
isoTOP-ABPP ratio Q01433_C107 ([1]; 200 μM, insitu, 231): 0.7
isoTOP-ABPP reactivity ratio, P50851_C1704 [3]: 1.4
isoTOP-ABPP reactivity ratio, Q9HB90_C377 [4]: 2.2

C=CC(=O)Nc1cc(F)c(N2CCN(C(=O)OC(C)(C)C)CC2)c(F)c1 [compound 38]
isoTOP-ABPP reactivity ratio, O114933_C98 ([9]; in-vitro_ramos): 1.7
isoTOP-ABPP reactivity ratio, O114933_C98 ([9]; in-vitro_ramos_231): 1.6
isoTOP-ABPP ratio P49189_C288 [7]; 231: 0.7
isoTOP-ABPP ratio P09110_C381 ([6]; 200 μM, insitu, 231): 0.8
isoTOP-ABPP ratio P51610_C1872 ([2]; 200 μM, insitu, 231): 1.3
isoTOP-ABPP reactivity ratio, P50851_C1704 [3]: 2.5
isoTOP-ABPP reactivity ratio, Q9HB90_C377 [4]: 1.0

Cc1ccc(C=C(C#N)C(=O)NCCN2CCOCC2)cc1 [compound 41]
isoTOP-ABPP reactivity ratio, O114933_C98 ([9]; in-vitro_ramos): 1.1
isoTOP-ABPP reactivity ratio, O114933_C98 ([9]; in-vitro_ramos_231): 1.2
isoTOP-ABPP ratio P49189_C288 [7]; 231: 0.8
isoTOP-ABPP ratio Q9BRF8_C54 ([5]; 200 μM, insitu, 231): 0.7
isoTOP-ABPP ratio P09110_C381 ([6]; 200 μM, insitu, 231): 0.9
isoTOP-ABPP ratio Q01433_C107 ([1]; 200 μM, insitu, 231): 0.5
isoTOP-ABPP ratio P51610_C1872 ([2]; 200 μM, insitu, 231): 0.5
isoTOP-ABPP reactivity ratio, Q9HB90_C377 [4]: 1.1
